According to patent publication US20080008704A1, “Methods of treating colorectal cancer with anti-epidermal growth factor antibodies” (priority 2001, published 2008):
“Also recorded” adds a separate entry of the source.

How the values were obtained:
Format in all cases: in vivo, human
[1] = system: metastatic colon cancer, liver metastasis; test: Prior therapies of the Example 1 patient before C225; conditions: same patient
Experimental: (§1) A patient presented with abdominal pain and constipation. […] Pathology confirmed metastatic colon cancer which is incurable. […] Since there were no other standard treatment options their tumor was assayed for EGF receptor which was positive.

[2] = system: metastatic colon cancer (EGF receptor positive); test: Example 1: patient with metastatic colon cancer treated with C225 and CPT-11; conditions: IRINOTECAN 125 mg/m^2 weekly given with C225
Experimental: as §1
For the first two weeks, IRINOTECAN® was administered at a dose of 125 mg/m^2.

[3] = system: colon cancer relapse (unresectable peritoneal disease, pulmonary metastasis); test: Example 2: same patient after relapse, treated again with C225 and dose reduced CPT-11, then C225 alone; conditions: dose reduced CPT-11 with C225
From the text: The subsequent history of the patient described in Example 1 is as follows. […] This was resected and subsequently they received both intrahepatic and systemic chemotherapy (FUDR and CPT-11) for 6 months.

| Structure (SMILES) | disease course on prior therapy [1] | toxicity causing IRINOTECAN dose to be held or reduced [2] | tolerability of CPT-11 [3] |
| --- | --- | --- | --- |
| O=c1[nH]cc(F)c(=O)[nH]1 [5-FU, 5-fluorouracil] | progressed with increasing liver metastasis | – | – |
| CCc1c2c(nc3ccc(OC(=O)N4CCC(N5CCCCC5)CC4)cc13)-c1cc3c(c(=O)n1C2)COC(=O)[C@]3(O)CC [IRINOTECAN] | continued to progress in the liver | diarrhea; also recorded: neutropenia | discontinued secondary to toxicity |
| O=C1[O][Pt]2([NH][C@@H]3CCCC[C@H]3[NH]2)[O]C1=O [OXALOPLATIN] | further disease progression in the liver | – | – |
